Data from article PMC8272561 (Bioorganic & medicinal chemistry letters, 2021).
Where two headings read alike, the source gives them in different places.

Legend:
[1] = tested on: WEEV genome replicon; conditions: read-out: IC50, inhibition of luciferase expression in WEEV replicon assay; cited from earlier work
[2] = tested on: FMV-infected BE(2)-C cells; test: Antiviral assay in FMV-infected BE; assay type: cell-based
[3] = tested on: WEEV genome replicon; test: organism not typed; assay type: cell-based; conditions: for IC50: read-out: IC50, inhibition of luciferase expression in WEEV replicon assay

| SMILES | Activity in WEEV replicon assay, in words [3] | Loss of potency relative to lead 2 in WEEV replicon assay [3] | further results |
| --- | --- | --- | --- |
| O=C(NCCc1ccncc1)C1CCN(C(=O)c2cc3ccccc3n2Cc2ccc(Cl)cc2)CC1 [compound 2] | – | – | IC50 [1]: 530 ± 80 nM; Enhancement of infected cell viability ([2]; 25 μM): two-fold enhancement |
| O=C(c1cc2ccccc2n1Cc1ccc(Cl)cc1)N1CCC(/C=C/CCc2ccncc2)CC1 [compound 17] | lost all activity | – | IC50 [3]: > 50 µM |
| O=C(c1cc2ccccc2n1Cc1ccc(Cl)cc1)N1CCC(/C=C\CCc2ccncc2)CC1 [compound 18] | lost all activity | – | IC50 [3]: > 50 µM |
| O=C(NCCc1ccncc1)C1=CCN(C(=O)c2cc3ccccc3n2Cc2ccc(Cl)cc2)CC1 [compound 22] | – | ~10 fold | – |
| CC1(C(=O)NCCc2ccncc2)CCN(C(=O)c2cc3ccccc3n2Cc2ccc(Cl)cc2)CC1 [compound 23] | lost all activity | – | – |
| O=C(NCCc1ccncc1)[C@H]1[C@@H]2CCN(C(=O)c3cc4ccccc4n3Cc3ccc(Cl)cc3)C[C@@H]21 [compound 26] | – | over 20 fold | – |
| O=C(NCCc1ccncc1)C1CC2(C1)CN(C(=O)c1cc3ccccc3n1Cc1ccc(Cl)cc1)C2 [compound 28] | – | over 20 fold | – |
| O=C(NCCc1ccncc1)C1CCCN(C(=O)c2cc3ccccc3n2Cc2ccc(Cl)cc2)CC1 (centres unmarked) [compound 29] | – | – | Improvement in infected cell viability versus negative control ([2]; 5 μM): nearly two-fold improvement |
